The values below are quoted from earlier work in patent US11554190B2, “Nanocarriers for the delivery of active ingredients” (President and Fellows of Harvard College, priority 2017, dated 2023).

Molecules are shown by their SMILES. Where two headings read alike, the source gives them in different places.

In one series the test system is Listeria on lettuce. The following applies: vaporized from 10% w/v hydrogen peroxide solution.
In series [1] the test system is Acinetobacter on surfaces. As to conditions: peak hydrogen peroxide concentration 500-600 ppm.
Another series relates to pathogens on surfaces. As to conditions: 5% w/v, wet approach.
Series [2] relates to surface deposited influenza. As to conditions: 90 ppm of vapor phase H2O2, similar times of treatment.
The next series concerns bacteria. The following applies: same amount of time.

In the case of `OO` [hydrogen peroxide], the “log reduction in concentration of Listeria on lettuce” value with Listeria on lettuce is 3 log. Moreover, in series [1], the “log reductions in the concentration of Acinetobacter on surfaces” value is given as 4 log. Moreover, the “effectiveness against pathogens on surfaces” value in the series on pathogens on surfaces is “ineffective”. Besides, in series [2], the “log reductions of surface deposited influenza” value is listed as 5 log. For the same molecule, the log reduction with bacteria (aqueous solution at 5% concentration) is 2.2 log; in the series on bacteria (aqueous solution at 10% concentration), 3.5 log.
